Source: publication PMC9963398, “Discovery of New Quinolone-Based Diarylamides as Potent B-RAF^V600E/C-RAF Kinase Inhibitors Endowed with Promising In Vitro Anticancer Activity” (International Journal of Molecular Sciences, 2023)
Like-named read-outs stand apart in the source and are kept apart here.

Key:
[1] = test system: NCI-60 human tumor cell lines; test: NCI-60 five-dose testing, ranges over panel or subpanel; assay type: cell-based
Description: (§1) The anticancer screening of target compounds over a full panel of 60 human cancer cell lines was carried out using Sulforhodamine B (SRB) assay at the National Cancer Institute (NCI), Bethesda, Maryland, USA, employing the standard protocol.

SF-268 = test: NCI-60 five-dose SRB assay; assay type: cell-based; details: Homo sapiens; SF-268, CNS cancer, five-dose test
Procedure, shortened: (§2)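 Each compound was evaluated on sixty human cancer lines at the National Cancer Institute. Cell growth was determined with a sulforhodamine B read-out under the routine NCI protocol.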

NCI-H460 = test: NCI-60 five-dose SRB assay; assay type: cell-based; details: Homo sapiens; NCI-H460, NSCL cancer, five-dose test
Procedure, shortened: as §2

NCI/ADR-RES = test: NCI-60 five-dose SRB assay; assay type: cell-based; details: Homo sapiens, Ovarian cancer, five-dose test
Procedure, shortened: as §2

A549/ATCC = test: NCI-60 five-dose SRB assay; assay type: cell-based; details: Homo sapiens, NSCL cancer, five-dose test
Procedure, shortened: as §2

HOP-92 = test: NCI-60 five-dose SRB assay; assay type: cell-based; details: Homo sapiens; HOP-92, NSCL cancer, five-dose test
Procedure, shortened: as §2

SK-MEL-28 [2] = test: NCI-60 five-dose SRB assay; assay type: cell-based; details: Homo sapiens; SK-MEL-28, Melanoma, five-dose test
Procedure, shortened: as §2

MCF7 [3] = test: NCI-60 five-dose SRB assay; assay type: cell-based; details: Homo sapiens; MCF7, Breast cancer, five-dose test
Procedure, shortened: as §2

SF-295 = test: NCI-60 five-dose SRB assay; assay type: cell-based; details: Homo sapiens; SF-295, CNS cancer, five-dose test
Procedure, shortened: as §2

KM12 = test: NCI-60 five-dose SRB assay; assay type: cell-based; details: Homo sapiens; KM12, Colon cancer, five-dose test
Procedure, shortened: as §2

SNB-75 = test: NCI-60 five-dose SRB assay; assay type: cell-based; details: Homo sapiens; SNB-75, CNS cancer, five-dose test
Procedure, shortened: as §2

UACC-257 [4] = test: NCI-60 five-dose SRB assay; assay type: cell-based; details: Homo sapiens; UACC-257, Melanoma, five-dose test
Procedure, shortened: as §2

MOLT-4 = test: NCI-60 five-dose SRB assay; assay type: cell-based; details: Homo sapiens; MOLT-4, Leukemia, five-dose test
Procedure, shortened: as §2

UACC-62 = test: NCI-60 five-dose SRB assay; assay type: cell-based; details: Homo sapiens; UACC-62, Melanoma, five-dose test
Procedure, shortened: as §2

HS 578T = test: NCI-60 five-dose SRB assay; assay type: cell-based; details: Homo sapiens, Breast cancer, five-dose test
Procedure, shortened: as §2

COLO 205 = test: NCI-60 five-dose SRB assay; assay type: cell-based; details: Homo sapiens; COLO 205, Colon cancer, five-dose test
Procedure, shortened: as §2

IGROV1 = test: NCI-60 five-dose SRB assay; assay type: cell-based; details: Homo sapiens, IGROV-1; IGROV1, Ovarian cancer, five-dose test
Procedure, shortened: as §2

C-RAF = C-RAF (Homo sapiens, UniProt P04049); test: HotSpot kinase assay (RBC), C-RAF; details: IC50 C-RAF, 10 µM ATP, 10-dose singlicate IC50 mode
Description: Reaction Biology Corporation (RBC) Kinase HotSpotSM service was utilized for cell-free biochemical kinase evaluation of the target compounds according to the reported assay protocol [46].

PC-3 = test: cells; details: Homo sapiens
Description: as §1

MDA-MB-468 = test: cells; details: Homo sapiens
Description: as §1

MDA-MB-231/ATCC = test: cells; details: Homo sapiens
Description: as §1

[5] = test system: NCI-60 human cancer cell lines; test: NCI-60 single dose (10 µM) testing; assay type: cell-based; details: single dose 10 µM
Description: Encouraged by the promising results in the cell-free assay, the antiproliferative activity of all final compounds was evaluated by the National Cancer Institute (NCI) in a single dose of 10 µM over a library of 60 human cancer cell lines representing nine cancer types; leukemia, non-small cell lung (NSCL), colon, central nervous system (CNS), melanoma, ovarian, renal, prostate, and breast cancer.

B-RAF^V600K = molecular target: T1, B-RAF^V600K (Homo sapiens, UniProt P15056, V600K); test: HotSpot kinase assay (RBC), B-RAF^V600K; assay type: biochemical; details: 10 µM ATP
T1 construct: purchased Reaction Biology Corporation (RBC), Kinase HotSpot service
Description: To gain insight into the inhibitory mode of this new array of quinolines, 18a was tested at 1 µM concentration of ATP to compare it with its IC50 at 10 µM (Table 2).

UO-31 = test system: UO-31; design: method as in PMID 32745753; details: UO-31, Renal cancer; cited from earlier work
CAKI-1 = test system: CAKI-1; design: method as in PMID 32745753; details: CAKI-1, Renal cancer; cited from earlier work
MCF7 [6] = test system: MCF7; design: method as in PMID 32745753; details: MCF7, Breast cancer; cited from earlier work
SK-MEL-28 [7] = test system: SK-MEL-28; design: method as in PMID 32745753; details: SK-MEL-28, Melanoma; cited from earlier work
OVCAR-4 = test system: OVCAR-4; design: method as in PMID 32745753; details: OVCAR-4, Ovarian cancer; cited from earlier work
SK-MEL-5 = test system: SK-MEL-5; design: method as in PMID 32745753; details: SK-MEL-5, Melanoma; cited from earlier work
BT-549 = test system: BT-549; design: method as in PMID 32745753; details: BT-549, Breast cancer; cited from earlier work
UACC-257 [8] = test system: UACC-257; design: method as in PMID 32745753; details: UACC-257, Melanoma; cited from earlier work
HL-60(TB) = test system: HL-60(TB); design: method as in PMID 32745753; details: Leukemia; cited from earlier work
A498 = test system: A498; design: method as in PMID 32745753; details: A498, Renal cancer; cited from earlier work
786-0 = test system: 786-0; design: method as in PMID 32745753; details: 786-0, Renal cancer; cited from earlier work

T1 sequence (P15056 whole entry V600K): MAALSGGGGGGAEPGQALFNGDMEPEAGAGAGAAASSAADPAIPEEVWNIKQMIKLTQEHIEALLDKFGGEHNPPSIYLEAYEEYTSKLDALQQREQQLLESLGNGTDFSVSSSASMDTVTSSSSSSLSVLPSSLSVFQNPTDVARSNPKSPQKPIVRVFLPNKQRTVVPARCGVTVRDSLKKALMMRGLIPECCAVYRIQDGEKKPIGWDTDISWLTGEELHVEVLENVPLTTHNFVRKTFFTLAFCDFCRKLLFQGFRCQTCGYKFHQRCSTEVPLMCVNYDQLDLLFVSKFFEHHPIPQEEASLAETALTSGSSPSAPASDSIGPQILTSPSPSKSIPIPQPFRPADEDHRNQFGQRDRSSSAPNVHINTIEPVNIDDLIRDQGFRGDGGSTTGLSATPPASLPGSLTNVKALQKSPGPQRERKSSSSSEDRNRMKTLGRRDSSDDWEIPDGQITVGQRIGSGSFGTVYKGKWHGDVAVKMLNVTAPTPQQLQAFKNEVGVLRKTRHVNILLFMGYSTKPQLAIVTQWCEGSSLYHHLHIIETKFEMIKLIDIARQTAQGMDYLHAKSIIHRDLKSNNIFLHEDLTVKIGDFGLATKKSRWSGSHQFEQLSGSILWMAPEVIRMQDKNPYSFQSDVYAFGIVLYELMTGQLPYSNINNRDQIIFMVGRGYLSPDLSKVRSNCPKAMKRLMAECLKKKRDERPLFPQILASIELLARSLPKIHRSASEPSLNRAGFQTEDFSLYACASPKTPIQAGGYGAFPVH
Chain of C-RAF (P04049 whole entry): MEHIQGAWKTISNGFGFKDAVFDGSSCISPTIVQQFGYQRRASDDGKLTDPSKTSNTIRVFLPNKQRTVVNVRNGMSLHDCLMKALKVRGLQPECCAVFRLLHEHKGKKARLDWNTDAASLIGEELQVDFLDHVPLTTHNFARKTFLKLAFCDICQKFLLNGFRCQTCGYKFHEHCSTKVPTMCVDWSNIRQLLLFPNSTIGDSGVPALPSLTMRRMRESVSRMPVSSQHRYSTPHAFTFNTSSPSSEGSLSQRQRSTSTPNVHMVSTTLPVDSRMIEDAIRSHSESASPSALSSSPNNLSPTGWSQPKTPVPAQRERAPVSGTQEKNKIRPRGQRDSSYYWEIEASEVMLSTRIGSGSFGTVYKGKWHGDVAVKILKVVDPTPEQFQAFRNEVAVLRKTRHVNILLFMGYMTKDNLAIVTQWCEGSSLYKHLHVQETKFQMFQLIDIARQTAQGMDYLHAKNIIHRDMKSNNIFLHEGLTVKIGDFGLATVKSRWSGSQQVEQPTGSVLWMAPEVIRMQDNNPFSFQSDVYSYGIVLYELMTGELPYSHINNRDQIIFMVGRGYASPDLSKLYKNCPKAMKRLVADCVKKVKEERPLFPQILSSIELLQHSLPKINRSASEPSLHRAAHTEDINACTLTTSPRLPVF

Compound: CN1CCCN(Cc2ccc(C(=O)Nc3cccc(Nc4ccc5c(O)cccc5n4)c3)cc2C(F)(F)F)CC1 [Compound 17b, N-(3-((5-hydroxyquinolin-2-yl)amino)phenyl)-4-((4-methyl-1,4-diazepan-1-yl)methyl)-3-(trifluoromethyl)benzamide]
- GI50 ([1]; Homo sapiens, MOLT-4, all leukemia cell lines, except MOLT-4): > 2000 nM
- GI50 ([1]; Homo sapiens, colon cancer cell lines, range over lines): < 2000 nM
- GI50 ([1]; Homo sapiens, melanoma cell lines, range over lines): 1600 to 1890 nM
- GI50 ([1]; melanoma cell lines, range over lines): < 2000 nM
- GI50 (SF-268): 2140 nM
- GI50 (NCI-H460): 1810 nM
- GI50 (NCI/ADR-RES): 6430 nM
- GI50 (A549/ATCC): 3630 nM
- GI50 (HOP-92): 1640 nM
- GI50 (SK-MEL-28 [2]): 1820 nM
- GI50 (MCF7 [3]): 1680 nM
- GI50 (SF-295): 1670 nM
- GI50 (KM12): 1980 nM
- GI50 (SNB-75): 1320 nM
- GI50 (UACC-257 [4]): 1600 nM
- GI50 (MOLT-4): 2110 nM
- GI50 (UACC-62): 1690 nM
- GI50 (HS 578T): 1930 nM
- GI50 (COLO 205): 1830 nM
- GI50 (IGROV1): 2560 nM
- IC50 (C-RAF): 65.3 ± 0.6 nM
- GI50 (PC-3): 1870 nM
- GI50 (MDA-MB-468): 1660 nM
- GI50 (MDA-MB-231/ATCC): 1650 nM
- growth percent ([5]; MALME-3M, MDA-MB-435, SK-MEL-2, and UACC-62): less than -90
- growth percent ([5]; melanoma LOX IMVI, SK-MEL-28, and SK-MEL-5): −100
- growth percent ([5]; melanoma SK-MEL-29, SK-MEL-5, and UACC-62): under −90%
- IC50 (B-RAF^V600K): 61.6 ± 1 nM

Compound: CNC(=O)c1cc(Oc2ccc(NC(=O)Nc3ccc(Cl)c(C(F)(F)F)c3)cc2)ccn1 [Sorafenib]
- GI50 (UO-31): 2600 nM
- GI50 (CAKI-1): 2900 nM
- GI50 (MCF7 [6]): 2800 nM
- GI50 (SK-MEL-28 [7]): 2600 nM
- GI50 (OVCAR-4): 3500 nM
- GI50 (SK-MEL-5): 1500 nM
- GI50 (BT-549): 3300 nM
- GI50 (UACC-257 [8]): 2200 nM
- GI50 (HL-60(TB)): 1600 nM
- GI50 (A498): 2300 nM
- GI50 (786-0): 3400 nM
